The numbers were not newly measured in patent publication EP0225409A1, “Organic amine phosphonic acid complexes for the treatment of calcific tumors” (THE DOW CHEMICAL COMPANY, priority 1985, dated 1987), which cites them from elsewhere.

The conditions of this data set: 24 hours after injection.

In the case of `NC(c1ccc(O)c([131I])c1)(P(=O)(O)O)P(=O)(O)O` [α-amino-(3-iodo-4-hydroxybenzylidene)diphosphonate], the “injected dose present in the thyroid” value was 0.1%.
